We go through one compound from ChEMBL document CHEMBL2434948, “Discovery, synthesis, and characterization of an orally bioavailable, brain penetrant inhibitor of mixed lineage kinase 3” (J Med Chem, 2013).

pIC50: −log10 of the molar value. Activity calls are given as the source filed them. The rule behind the calls is not given here.

As usually defined, the pIC50 is the negative decadic logarithm of the IC50, by convention in mol/L. A low value points to a high IC50. For orientation: inhibition means the drop in the measured response relative to a control, in per cent.

For experiment [1], the target named is Proto-oncogene tyrosine-protein kinase Src (Homo sapiens, UniProt P12931).
Description: Inhibition of wild type human SRC by high throughput ATP-[33P] radiolabeled assay
The target in experiment [2] is Mitogen-activated protein kinase 8 (Homo sapiens, UniProt P45983).
Description: Inhibition of wild type human wild type JNK1 by qPCR analysis
Experiment [3] has as its system Leucine-rich repeat serine/threonine-protein kinase 2 (Homo sapiens), Q5S007 [G2019S]. Briefly: Inhibition of human LRRK2 G2019S mutant at 1 uM by qPCR analysis relative to control. (In qPCR the cycle at which signal appears reflects the starting amount.)
Experiment [4] deals with Mitogen-activated protein kinase kinase kinase 10 (Homo sapiens, UniProt Q02779).
Description: Inhibition of MLK2 (unknown origin)
The target in experiment [5] is Dual specificity protein kinase CLK2 (Homo sapiens) (UniProt P49760). Briefly: Inhibition of human wild type CLK2 at 1 uM by qPCR analysis relative to control.
Experiment [6] deals with TRAF2 and NCK-interacting protein kinase (Homo sapiens) (UniProt Q9UKE5). Kind of experiment: Binding affinity to human wild type TNIK at 1 uM by qPCR analysis.

Dual specificity protein kinase CLK2 (Homo sapiens), sequence (P49760 whole entry, looked up): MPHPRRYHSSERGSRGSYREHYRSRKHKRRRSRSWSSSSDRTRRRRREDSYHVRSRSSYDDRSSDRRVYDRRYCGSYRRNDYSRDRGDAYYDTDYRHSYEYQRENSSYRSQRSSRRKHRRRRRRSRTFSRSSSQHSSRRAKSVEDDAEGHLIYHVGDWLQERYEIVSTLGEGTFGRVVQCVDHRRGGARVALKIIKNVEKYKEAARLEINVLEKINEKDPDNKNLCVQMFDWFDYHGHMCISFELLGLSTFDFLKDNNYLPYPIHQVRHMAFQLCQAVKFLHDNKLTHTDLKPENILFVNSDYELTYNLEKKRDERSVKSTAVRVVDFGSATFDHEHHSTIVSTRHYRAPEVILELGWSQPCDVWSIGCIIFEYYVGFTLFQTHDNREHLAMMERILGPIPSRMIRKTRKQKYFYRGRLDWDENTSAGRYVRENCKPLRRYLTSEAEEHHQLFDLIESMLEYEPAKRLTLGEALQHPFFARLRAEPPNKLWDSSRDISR
Mitogen-activated protein kinase kinase kinase 10, sequence (Q02779 whole entry): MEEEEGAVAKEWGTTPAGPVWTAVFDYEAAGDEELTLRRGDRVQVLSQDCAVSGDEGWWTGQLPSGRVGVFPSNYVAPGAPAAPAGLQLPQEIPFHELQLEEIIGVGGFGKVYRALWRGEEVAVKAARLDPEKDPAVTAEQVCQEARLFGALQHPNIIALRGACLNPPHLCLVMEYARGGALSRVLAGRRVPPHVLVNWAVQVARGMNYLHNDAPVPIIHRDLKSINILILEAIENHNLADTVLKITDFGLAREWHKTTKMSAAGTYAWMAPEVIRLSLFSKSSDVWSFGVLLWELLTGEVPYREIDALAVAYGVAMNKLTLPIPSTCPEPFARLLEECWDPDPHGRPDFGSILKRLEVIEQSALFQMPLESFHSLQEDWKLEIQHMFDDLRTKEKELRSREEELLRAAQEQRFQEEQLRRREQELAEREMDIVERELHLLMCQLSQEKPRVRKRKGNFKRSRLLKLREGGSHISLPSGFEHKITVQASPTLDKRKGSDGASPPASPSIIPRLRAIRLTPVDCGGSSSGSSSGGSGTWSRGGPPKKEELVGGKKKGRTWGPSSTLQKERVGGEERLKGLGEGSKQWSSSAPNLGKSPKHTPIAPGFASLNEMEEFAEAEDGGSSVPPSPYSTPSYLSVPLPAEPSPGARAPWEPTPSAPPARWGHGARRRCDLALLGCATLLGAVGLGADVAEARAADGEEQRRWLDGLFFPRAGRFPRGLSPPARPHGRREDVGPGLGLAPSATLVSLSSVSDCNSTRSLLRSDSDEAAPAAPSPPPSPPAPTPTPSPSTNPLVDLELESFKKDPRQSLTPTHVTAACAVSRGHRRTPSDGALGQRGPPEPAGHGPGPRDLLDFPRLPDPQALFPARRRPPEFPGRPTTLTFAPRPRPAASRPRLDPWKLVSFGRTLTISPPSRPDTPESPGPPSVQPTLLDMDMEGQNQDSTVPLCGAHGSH
Leucine-rich repeat serine/threonine-protein kinase 2 (Homo sapiens), Q5S007 [G2019S], sequence (Q5S007 whole entry G2019S): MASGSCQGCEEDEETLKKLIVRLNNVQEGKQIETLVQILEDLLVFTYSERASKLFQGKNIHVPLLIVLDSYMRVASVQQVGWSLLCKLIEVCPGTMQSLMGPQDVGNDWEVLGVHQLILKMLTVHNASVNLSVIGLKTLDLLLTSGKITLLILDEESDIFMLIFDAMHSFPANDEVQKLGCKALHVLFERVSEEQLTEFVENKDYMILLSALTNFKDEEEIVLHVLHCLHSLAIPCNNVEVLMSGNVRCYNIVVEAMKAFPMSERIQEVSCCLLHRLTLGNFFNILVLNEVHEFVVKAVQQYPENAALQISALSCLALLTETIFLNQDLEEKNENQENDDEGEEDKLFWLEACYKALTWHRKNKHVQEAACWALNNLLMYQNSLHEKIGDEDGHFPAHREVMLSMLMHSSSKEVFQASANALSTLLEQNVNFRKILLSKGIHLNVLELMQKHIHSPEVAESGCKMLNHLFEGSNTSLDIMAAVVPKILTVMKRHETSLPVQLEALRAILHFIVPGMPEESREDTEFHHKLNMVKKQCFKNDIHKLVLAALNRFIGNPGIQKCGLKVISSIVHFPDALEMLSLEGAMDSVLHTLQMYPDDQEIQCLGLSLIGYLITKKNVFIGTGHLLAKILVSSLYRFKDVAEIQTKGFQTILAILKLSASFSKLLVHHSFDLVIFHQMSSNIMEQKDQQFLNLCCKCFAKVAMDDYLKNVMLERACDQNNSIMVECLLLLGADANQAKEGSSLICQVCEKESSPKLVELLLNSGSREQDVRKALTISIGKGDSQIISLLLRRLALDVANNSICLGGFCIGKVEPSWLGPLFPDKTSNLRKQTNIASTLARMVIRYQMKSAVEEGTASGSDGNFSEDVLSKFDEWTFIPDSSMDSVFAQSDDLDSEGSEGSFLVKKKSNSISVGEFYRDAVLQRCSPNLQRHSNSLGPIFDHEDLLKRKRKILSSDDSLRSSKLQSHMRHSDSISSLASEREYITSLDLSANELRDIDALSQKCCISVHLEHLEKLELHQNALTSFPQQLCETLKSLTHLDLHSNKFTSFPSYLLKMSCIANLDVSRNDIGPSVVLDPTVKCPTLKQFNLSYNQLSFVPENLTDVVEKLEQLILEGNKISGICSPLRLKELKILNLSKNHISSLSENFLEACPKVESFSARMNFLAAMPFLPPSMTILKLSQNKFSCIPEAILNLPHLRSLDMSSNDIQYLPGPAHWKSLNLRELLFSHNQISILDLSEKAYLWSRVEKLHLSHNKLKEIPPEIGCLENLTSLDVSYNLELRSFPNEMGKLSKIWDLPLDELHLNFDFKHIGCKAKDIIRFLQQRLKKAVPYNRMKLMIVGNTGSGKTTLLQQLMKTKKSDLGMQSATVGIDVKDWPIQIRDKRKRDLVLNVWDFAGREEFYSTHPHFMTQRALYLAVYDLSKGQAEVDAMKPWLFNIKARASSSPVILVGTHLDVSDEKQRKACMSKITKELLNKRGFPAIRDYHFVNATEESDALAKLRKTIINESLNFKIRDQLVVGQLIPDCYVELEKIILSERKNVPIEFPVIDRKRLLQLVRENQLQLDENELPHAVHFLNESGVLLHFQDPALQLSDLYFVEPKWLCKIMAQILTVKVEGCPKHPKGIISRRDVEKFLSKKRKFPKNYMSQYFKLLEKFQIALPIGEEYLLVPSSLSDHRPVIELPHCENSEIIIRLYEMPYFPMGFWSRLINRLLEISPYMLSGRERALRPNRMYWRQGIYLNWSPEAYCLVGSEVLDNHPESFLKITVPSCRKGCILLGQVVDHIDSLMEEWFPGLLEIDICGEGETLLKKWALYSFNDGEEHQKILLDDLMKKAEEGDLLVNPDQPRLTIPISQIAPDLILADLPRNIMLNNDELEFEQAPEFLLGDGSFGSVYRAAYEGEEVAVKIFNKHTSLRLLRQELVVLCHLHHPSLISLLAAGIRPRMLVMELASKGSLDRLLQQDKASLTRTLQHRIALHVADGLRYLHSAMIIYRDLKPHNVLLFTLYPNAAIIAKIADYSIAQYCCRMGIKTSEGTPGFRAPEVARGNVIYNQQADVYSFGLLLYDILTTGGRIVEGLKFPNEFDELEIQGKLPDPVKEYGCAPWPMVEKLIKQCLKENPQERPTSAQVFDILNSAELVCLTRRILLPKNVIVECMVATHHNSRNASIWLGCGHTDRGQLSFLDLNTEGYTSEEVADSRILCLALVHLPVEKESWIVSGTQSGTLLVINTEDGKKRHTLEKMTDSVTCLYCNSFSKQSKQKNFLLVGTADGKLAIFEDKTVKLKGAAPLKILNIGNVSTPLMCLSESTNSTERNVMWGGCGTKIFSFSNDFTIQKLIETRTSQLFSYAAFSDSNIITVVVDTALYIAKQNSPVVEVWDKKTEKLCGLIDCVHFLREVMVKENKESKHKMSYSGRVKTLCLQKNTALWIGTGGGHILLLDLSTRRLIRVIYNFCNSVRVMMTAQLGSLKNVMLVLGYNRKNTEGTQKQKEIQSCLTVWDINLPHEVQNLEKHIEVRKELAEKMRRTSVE
Mitogen-activated protein kinase 8, sequence (P45983 whole entry): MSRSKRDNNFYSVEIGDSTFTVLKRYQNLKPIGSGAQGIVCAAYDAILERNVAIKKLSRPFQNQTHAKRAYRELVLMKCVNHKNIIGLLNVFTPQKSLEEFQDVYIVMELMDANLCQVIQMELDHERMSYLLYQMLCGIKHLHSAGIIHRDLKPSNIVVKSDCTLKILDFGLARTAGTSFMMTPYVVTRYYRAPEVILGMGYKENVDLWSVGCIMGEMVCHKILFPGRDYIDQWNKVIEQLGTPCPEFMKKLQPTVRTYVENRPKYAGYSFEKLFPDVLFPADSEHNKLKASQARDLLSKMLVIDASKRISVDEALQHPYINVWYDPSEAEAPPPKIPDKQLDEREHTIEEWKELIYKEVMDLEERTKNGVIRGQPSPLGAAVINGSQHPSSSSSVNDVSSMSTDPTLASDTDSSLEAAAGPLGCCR
Proto-oncogene tyrosine-protein kinase Src, sequence (P12931 2-536 limits assumed): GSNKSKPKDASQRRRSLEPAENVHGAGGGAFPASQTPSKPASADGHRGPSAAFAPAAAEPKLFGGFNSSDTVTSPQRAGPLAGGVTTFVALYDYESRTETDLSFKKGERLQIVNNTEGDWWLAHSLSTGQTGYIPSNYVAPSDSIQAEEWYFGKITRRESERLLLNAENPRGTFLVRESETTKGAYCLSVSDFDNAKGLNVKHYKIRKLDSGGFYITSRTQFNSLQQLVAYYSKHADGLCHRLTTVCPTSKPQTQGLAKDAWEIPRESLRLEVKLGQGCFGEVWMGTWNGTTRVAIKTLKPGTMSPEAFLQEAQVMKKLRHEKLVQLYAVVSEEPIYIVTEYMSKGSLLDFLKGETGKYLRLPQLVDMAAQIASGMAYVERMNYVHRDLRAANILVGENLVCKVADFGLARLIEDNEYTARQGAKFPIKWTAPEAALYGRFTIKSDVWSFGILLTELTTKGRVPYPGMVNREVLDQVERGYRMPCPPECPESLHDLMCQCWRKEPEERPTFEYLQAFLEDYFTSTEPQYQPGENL

Take `CN1CCN(Cc2ccc(-c3cnc4[nH]cc(-c5ccc6[nH]ccc6c5)c4c3)cc2)CC1`: the results for the pIC50 in experiment [1], in experiment [2] and in experiment [4] were 5.36, 5.48 and 7.38, respectively. The inhibition in experiment [3] was 96%; in experiment [5], greater than 90%. Also, the inhibition entry in experiment [6] is “Active”.
